Consider 1 compound from US9844565B2, “Systems and methods for treatment of acne vulgaris and other conditions with a topical nitric oxide delivery system” (priority 2012, dated 2017).

Each structure is given as a SMILES string.

For experiment [1], the system named is micro-capillary blood flow to skin. Description: Laser Doppler study with covered chamber in three human female subjects, 10,000 ppm NO (Example 5). It is filed as in vivo. The following applies: applied to the skin at 1/10% in alcohol. The text has this:
While nitric oxide has many physiological effects, the purpose of these studies was to measure physiological effects that would be relatively easy to determine, and which would be noninvasive. […] Nitric oxide is capable of […] the capillary bed, and thus, laser Doppler was selected.
The formulation used in these studies contained nitric oxide dispersed in a lipid matrix. […] Nitric oxide is a very rapid acting molecule, and these studies used a system that employed laser Doppler with a covered chamber. The formulation was placed into the chamber and then attached to the skin by an adhesive layer on the covering. This provided a stable measuring device as determined by multiple normal evaluations of the capillary blood flow without treatment of nitric oxide.
A known positive control, methyl nicotinate, was applied to the skin at a concentration of 1/10% in alcohol. […] The vascular dynamics are such that when the blood vessels dilate physical parameters follow Bernoulli's law. […] The laser Doppler device accurately measured these parameters. […]
A Moor Instruments DRT4 Laser Doppler Blood Flow Monitor (Devon, England) was used in these studies. The laser Doppler technique measured blood flow in the microcapillaries of the skin that are close to the skin surface and the blood flow in underlying arterioles and venules that help to regulate skin temperature. […]

The subject of experiment [2] is capillary circulation of the skin. Description: Laser Doppler study in five human subjects, 10,000 ppm NO formulation vs controls (Example 7). It is filed as in vivo. The following applies: positive control formulation containing 0.1% methyl nicotinate. The text has this: This example illustrates delivery of nitric oxide formulations to five human subjects, using procedures and formulations similar to those discussed in Example 5. Each person served as their own control for the testing. A Moor Instruments Laser Doppler was used to determine circulation. […] The formulations used produce positive, almost immediate results when applied to the skin which, in these studies, was manifested by vasodilatation of the cutaneous vascular system.
For each subject, the following creams were applied: a negative control formulation (containing no NO), 0.010 gram of a 10,000 ppm NO formulation, 0.020 gram of a 10,000 ppm NO formulation, and a positive control formulation containing 0.1% methyl nicotinate. The formulations were prepared using procedures similar to those discussed in Example 1.

Take `COC(=O)c1cccnc1` [methyl nicotinate]: the “laser Doppler response of positive control” value in experiment [1] was “rapid response typical of the vasodilator”. Further, the “vasodilatation (laser Doppler)” value in experiment [2] is “vasodilatation was observed”.
